Measured values: PubChem BioAssay AID489023 (Sanford-Burnham Center for Chemical Genomics, 2010)
Activity calls are given as the source filed them. The rule behind the calls is not given here.

The compounds below were run on 697B cells, BCR-induced NF-kB luciferase reporter luminescence (assay: B-cell receptor NF-kB reporter inhibition – 697B cells, luciferase luminescence, dose response (AID 489023)).
In the case of `Cc1ccccc1Nc1nc(Cl)c(C=O)s1`, the IC50 is reported as > 80 µM (inactive). `COc1ccc(N(CC(=O)N2CCN(c3ccc(Cl)cc3)CC2)S(=O)(=O)c2c(C)n[nH]c2C)cc1` was tested, and the IC50 was > 80 µM (inactive). In the case of `Cc1c(CCC(=O)NCCCn2ccnc2)c(=O)oc2c(C)c3oc4c(c3cc12)CCCC4`, the IC50 is reported as 30.4 µM (inactive). For `CN1C(=O)CSc2ccc(NC(=O)N3CCN(c4ccccc4)CC3)cc21`, the IC50 was 74 µM (inactive). In the case of `Cn1c(=O)cc(OCCCC(=O)N2CCCCC2)c2ccccc21`, the IC50 is reported as > 80 µM (inactive). With `CCc1ccc(-c2nnn(CCC(=O)OC)n2)cc1` the IC50 was 5.46 µM. Work on `O=C(NNC(=O)C12CC3CC(CC(C3)C1)C2)c1cccc(O)c1` yielded an IC50 of 16.5 µM. For `CCOC(=O)c1sc(NC(=O)c2cc(-c3ccccc3C)nc3ccccc23)c(C#N)c1C`, the IC50 was 19.3 µM. In the case of `CCC(CC)C(=O)Nc1ccc(Sc2ccc([N+](=O)[O-])cc2)cc1`, the IC50 is reported as 32.2 µM (inactive). With `COc1ccc(-c2noc(N3CCC(C(=O)Nc4cccc(OC)c4)CC3)n2)cc1` the IC50 was > 80 µM (inactive). Compound `CCN(CC(=O)Nc1c(F)cccc1F)C(=O)c1cc([N+](=O)[O-])ccc1N1CCCCC1` has an IC50 of 13.6 µM. In the case of `Cc1nc([N+](=O)[O-])c(Sc2nc3ccc([N+](=O)[O-])cc3[nH]2)n1Cc1ccccc1`, the IC50 is reported as 8.74 µM. `Cc1cccc(C(=O)Nc2ccc(CC(=O)O)cc2)c1` was tested, and the IC50 was 24.1 µM (inactive). With `COCCCn1c(=O)/c(=C\c2cccc(OC)c2OC)s/c1=C(/C#N)C(=O)Nc1ccc(C(=O)O)cc1` the IC50 was > 80 µM (inactive). In the case of `Fc1ccc(C2=Nn3c(nnc3-c3n[nH]c4c3CCC4)SC2)cc1`, the IC50 is reported as 34.6 µM (inactive). With `COc1ccc(/C=C2/SC(=S)N(CCC(=O)O)C2=O)cc1` the IC50 was 2.46 µM. In the case of `CC(C)Oc1ccc(C(=O)Nc2ccc(N(C)C)cc2)cc1`, the IC50 is reported as 61.3 µM (inactive). In the case of `O=C(NCCCN1CCOCC1)c1cc(-c2ccc(Br)cc2)on1`, the IC50 is reported as 48.1 µM (inactive). `O=C(CCCN1C(=O)/C(=C/c2ccccc2Cl)SC1=S)NNC(=O)c1ccc(Cl)cc1` was tested, and the IC50 was 30.7 µM (inactive). `CCN(CC(=O)Nc1c(F)cccc1F)C(=O)C1(c2ccccc2)CC1` showed an IC50 of 14.4 µM. Compound `COc1ccc(/C=C2\SC(=S)N(CCCC(=O)NNC(=O)c3ccccc3O)C2=O)cc1` has an IC50 of 0.68 µM. `CNC(=O)CCc1nc(-c2ccc(C(C)(C)C)cc2)no1` showed an IC50 of under 0.16 µM. `O=C(CCCN1C(=O)/C(=C/c2ccccc2Cl)SC1=S)NNC(=O)c1ccncc1` was tested, and the IC50 was 25.7 µM (inactive). `CC1=CC(C)(C)Nc2ccc(OC(=O)CN3C(=O)CCC3=O)cc21` was tested, and the IC50 was 8.56 µM. `CCC(C)[C@H](N)c1nnc(SCC(=O)c2ccc(Cl)cc2)o1` (stereo partly drawn) was tested, and the IC50 was > 80 µM (inactive). For `COc1ccc(/C=C/c2ccccc2)cc1[C@H]1[C@H]2C=CC[C@@H](C)[C@@H]2C(=O)N1Cc1ccccc1`, the IC50 was > 80 µM (inactive). With `COc1ccccc1/C=C1/SC(=S)N(CCC(=O)Nc2cccnc2)C1=O` the IC50 was 9.65 µM. For `O=C(CCl)N1CCN(S(=O)(=O)c2ccc3c(c2)CCC3)CC1`, the IC50 was 5.72 µM. In the case of `CCn1c(=O)cc(SCC(=O)N2CCC(C)CC2)c2ccccc21`, the IC50 is reported as > 80 µM (inactive). Work on `Cc1c(CCO)c(=O)oc2n[nH]c(-c3ccccc3)c12` yielded an IC50 of 13.8 µM. For `Cc1ccc(-c2c[n+]3c(n2-c2ccccc2)SCC3)cc1`, the IC50 was > 80 µM (inactive). In the case of `CNC(=O)c1cc(Nc2nnc(-c3ccc(O)cc3)c3ccccc23)ccc1OC`, the IC50 is reported as > 80 µM (inactive). With `COc1ccc(NC(=O)c2cc(-c3ccccn3)nc3ccccc23)cc1S(=O)(=O)N(C)C` the IC50 was 7.8 µM. `CCc1ccc(/C=C2/SC(=S)N(CCC(=O)Nc3cccc(C(=O)O)c3)C2=O)cc1` was tested, and the IC50 was > 80 µM (inactive). For `Cc1ccccc1-n1c(SCc2c(C)noc2C)nnc1-c1c[nH]c2ccccc12`, the IC50 was 76.1 µM (inactive). In the case of `CCN(CC)CCOC(=O)c1ccc(NC(=O)COc2cc(=O)n(CC)c3ccccc23)cc1`, the IC50 is reported as > 80 µM (inactive). `CCOc1ccc(-c2cc(CCCC(=O)NCc3ccco3)no2)cc1` gave an IC50 of 6.57 µM. `COc1ccc(NS(=O)(=O)c2cc(NC(=O)c3cc(=O)c4ccccc4o3)ccc2OC)cc1` was tested, and the IC50 was > 80 µM (inactive). With `N=c1ccn(Cc2ccccc2Cl)cc1` the IC50 was > 80 µM (inactive). For `COc1ccc2nc(C)cc(Sc3nc4ccccc4s3)c2c1`, the IC50 was 1.81 µM. For `COC(=O)c1c(-c2ccc(N(C)C)cc2)sc2ccc(OC)cc12`, the IC50 was > 80 µM (inactive). `Cc1cc(C)cc(NC(=O)c2nnn(Cc3cc(C)ccc3C)c2N)c1` was tested, and the IC50 was > 80 µM (inactive). In the case of `CCC(C)N1C(=O)/C(=C/c2c(NCCCOC(C)C)nc3c(C)cccn3c2=O)SC1=S` (stereo not drawn), the IC50 is reported as > 80 µM (inactive). In the case of `CC(=C\c1ccccc1)/C=C1/SC(=O)N(CCCC(=O)Nc2ccc(C(=O)O)cc2)C1=O`, the IC50 is reported as 0.64 µM. Compound `CCOc1cc2nc(-c3ccc(OC)c(OC)c3)nc(N3CCOCC3)c2cc1OC` has an IC50 of 4.94 µM. `COc1cc(/C(C)=N\NC(N)=S)cc(OC)c1OC` was tested, and the IC50 was 70.7 µM (inactive). With `COC(=O)CSc1nnc(-c2sc3ccccc3c2Cl)o1` the IC50 was 10.3 µM. Work on `CCN(CC)CCOC(=O)c1ccc(NC(=O)CCCN2C(=O)S/C(=C/c3ccc(OC)cc3)C2=S)cc1` yielded an IC50 of 2.11 µM.
